Experiments:
Experiment in all cases: Pre-emergent Test III, preemergent activity in wheat and barley
[1] = system: APESV; format: in vivo, Apera spica-venti
Protocol: (§1) Pre-emergent Test III. Seeds of test species were planted into square plastic pots (10 cm wide) containing sandy loam soil. After planting, all pots were sub-irrigated 16 h prior to compound application. A weighed amount, determined by the highest rate to be tested, of each test compound was placed in a 25 mL glass vial and was dissolved in 4 mL of a 97:3 v/v mixture of acetone and DMSO to obtain concentrated stock solutions. […] The concentrated stock solutions obtained were diluted with 20 mL of an aqueous mixture containing water and 0.02% w/v (weight/volume) of Triton X-155 to obtain spray solutions containing the highest application rates. Additional application rates were obtained by serial dilution of 12 mL of the high rate solution into a solution containing 2 mL of 97:3 v/v mixture of acetone and DMSO and 10 mL of an aqueous mixture containing water and 0.02% w/v (weight/volume) of Triton X-155 to obtain 1⁄2×, 1⁄4×, 1⁄8× and 1/16× rates of the high rate. Compound requirements are based upon a 12 mL application volume at a rate of 187 liters per hectare (L/ha). Formulated compounds were applied to the soil surface with an overhead Mandel track sprayer equipped with […] nozzles calibrated to deliver 187 L/ha over an application area of 0.503 square meters. Control pots were sprayed in the same manner with the solvent blank. The treated pots and control pots were placed in a greenhouse as described above and watered through surface irrigation. After 21 d, the condition of the test pots as compared with that of the untreated pots was determined visually and scored on a scale of 0 to 100 percent where 0 corresponds to no herbicidal effect and 100 corresponds to plant death or lack of emergence from the soil. By applying the well-accepted probit analysis as described by J. Berkson in Journal of the American Statistical Society, 48, 565 (1953) and by D. Finney in “Probit Analysis” Cambridge University Press (1952), the above data can be used to calculate GR20, GR50, GR80 and GR90 values, which are defined as growth reduction factors that correspond to the effective dose of herbicide required to kill or control 20 percent, 50 percent, 80 percent or 90 percent, respectively, of a target plant.

[2] = system: LOLSS; format: in vivo, Lolium multiflorum, Lolium rigidum
Protocol: as §1

[3] = system: HORSS; format: in vivo, Hordeum vulgare
Protocol: as §1

[4] = system: LAMSS; format: in vivo
Protocol: as §1

[5] = system: SETVI; format: in vivo, Setaria viridis
Protocol: as §1

[6] = system: TRZSS; format: in vivo, Triticum aestivum
Protocol: as §1

[7] = 21 days after application, dose to kill or control 50%, probit analysis
[8] = 21 days after application, dose to kill or control 80%, probit analysis
[9] = 21 days after application, dose to kill or control 20%, probit analysis

Structure (SMILES): Nc1c(F)c(-c2ccc(Br)cc2)nc(C(=O)O)c1Cl [Compound 20]
- Visual Growth Reduction (%) 21 Days After Application, APESV ([1]; 35 g ai/ha): A (95-100)
- Visual Growth Reduction (%) 21 Days After Application, APESV ([1]; 70 g ai/ha): A (95-100)
- GR50 APESV [1, 7]: 6 g ai/ha
- GR80 APESV [1, 8]: 16 g ai/ha
- Visual Growth Reduction (%) 21 Days After Application, LOLSS ([2]; 35 g ai/ha): G (0-29)
- Visual Growth Reduction (%) 21 Days After Application, LOLSS ([2]; 70 g ai/ha): E (45-59)
- GR50 LOLSS [2, 7]: >70 g ai/ha
- GR80 LOLSS [2, 8]: >70 g ai/ha
- Visual Growth Reduction (%) 21 Days After Application, HORSS ([3]; 35 g ai/ha): F (30-44)
- Visual Growth Reduction (%) 21 Days After Application, HORSS ([3]; 70 g ai/ha): E (45-59)
- GR20 HORSS [3, 9]: 17 g ai/ha
- Visual Growth Reduction (%) 21 Days After Application, LAMSS ([4]; 35 g ai/ha): A (95-100)
- Visual Growth Reduction (%) 21 Days After Application, LAMSS ([4]; 70 g ai/ha): A (95-100)
- GR50 LAMSS [4, 7]: 6 g ai/ha
- GR80 LAMSS [4, 8]: 9 g ai/ha
- Visual Growth Reduction (%) 21 Days After Application, SETVI ([5]; 35 g ai/ha): F (30-44)
- Visual Growth Reduction (%) 21 Days After Application, SETVI ([5]; 70 g ai/ha): B (85-94)
- GR50 SETVI [5, 7]: 32 g ai/ha
- GR80 SETVI [5, 8]: 71 g ai/ha
- Visual Growth Reduction (%) 21 Days After Application, TRZSS ([6]; 35 g ai/ha): E (45-59)
- Visual Growth Reduction (%) 21 Days After Application, TRZSS ([6]; 70 g ai/ha): E (45-59)
- GR20 TRZSS [6, 9]: 10 g ai/ha

Source: patent US9113629B2, “4-amino-6-(4-substituted-phenyl)-picolinates and 6-amino-2-(4-substituted-phenyl)-pyrimidine-4-carboxylates and their use as herbicides” (DOW AGROSCIENCES LLC, priority 2013, dated 2015)
